The test system of series [1] is MDA-MB-231 cells. As to the kind of experiment: ROS detection (Muse oxidative stress kit) in MDA-MB-231 cells. It is filed as cell-based, human. As to conditions: 10 μM, 4 hrs. The text has this:
(§1) FIG. 4B is a set of images of MDA-MB-231 (TNBC cells) co-cultured with MCF-10A (normal mammary cells) after exposure to DMSO control (left) as well as 3D (right). FIGS. 5A-5E illustrate the finding that 3D induces a rise in reactive oxygen species (ROS) inside TNBC cells and not normal healthy cells.
(§2) Manipulation of reactive oxygen species (ROS) levels is one potential mechanistic target for anti-cancer molecules because high levels of ROS can promote cell death. […] Levels of ROS were detected by assessing the conversion of a non-fluorescent compound (dihydroethidium) to its oxidized metabolite (ethidium bromide) in the presence of intracellularly accumulated ROS following 3D administration using a Muse oxidative stress kit.

Series [2] has as its system HS-578T TNBC cell line. Nature of the series: Caspase 3/7 activation in Hs578T cells. In kind it is cell-based. As to conditions: 10 μM, 4 hr. The text has this: (§3) FIGS. 7A-7H illustrate the finding that similar death-inducing effects are observed in other triple negative cells lines BT-549 and Hs578T. […] FIG. 7D represents a graphical quantification of caspase3/7 activation by 3D in BT-549. […] FIG. 7H represents a graphical quantification of caspase3/7 activation by 3D in HS-578T.
(§4) In order to explore the broader effects of 3D in the killing of TNBC cells, the experiments reported in Example 2 were repeated in 2 additional cells lines BT-549 and Hs578T.

Series [3] has as its system BT-549 TNBC cell line. As to the kind of experiment: Caspase 3/7 activation in BT-549 cells. In kind it is cell-based. As to conditions: 10 μM, 4 hr.
Excerpt: as §3, §4

The subject of series [4] is MDA-MB-231 cells. As to the kind of experiment: Caspase 3/7 activity assay in MDA-MB-231 cells. In kind it is cell-based, human. The conditions noted are these: for caspase 3/7 positive cells: DMSO 6.4±1.1%, n=3. On the procedure: To identify mechanisms involved in the apoptotic death induced by compound 3D the iodine group (3D) was substituted by a fluorine group (3C) and a caspase 3/7 activity assay kit was utilized, which detects downstream effector apoptosis-causing caspases to assess death of TNBC cells. […] Quantitatively, 49.5±8.3% of cells were caspase 3/7 positive when treated with compound 3D compared to only 6.4±1.1% in the DMSO control group p<0.005 (FIG. 3D).
Further substitution experiments were conducted, replacing the para iodine with chlorine or bromine, as well as experiments wherein the sulfone was removed. To help identify mechanisms involved in the apoptotic death induced by compound 3D, the iodine group was substituted with chlorine or bromine. A caspase 3/7 activity assay kit was used to detect downstream effector apoptosis-causing caspases to assess death of TNBC cells. […] Additionally, when a compound was generated lacking the sulfonyl group, all cytotoxic effects of 3D on TNBC cells was abolished.

Series [5] concerns MDA-MB-231 cells. As to the kind of experiment: Quantitative annexin V death assay (flow cytometry) in MDA-MB-231 cells. In kind it is cell-based, human. The conditions noted are these: n=4-7; for total annexin V-positive cells: DMSO 13.5±2.2%; for live cell population: DMSO 86.4±2.2%. On the procedure: To confirm what type of cell death was responsible for the observed activity, a quantitative annexin V death assay was performed to quantify the amount of necrosis (non-specific toxicity) vs apoptosis (programmed cell death) induced by compound 3D. […] Compound 3D decreased live cell population from 86.4±2.2% (DMSO) to 48.1±3.0% (3D: p<0.001) and increased total annexin V-positive cells from 13.5±2.2% (DMSO) to 51.4±3.1% (3D: p<0.001).
A general note: A flow cytometer gives signals particle by particle.

Series [6] deals with MCF-10A cells co-cultured with MDA-MB-231 cells. As to the kind of experiment: Co-culture of MCF-10A and MDA-MB-231 cells, fluorescence microscopy. In kind it is cell-based, human. As to conditions: 1:1 MCF-10A (mcherry red) and MDA-MB-231 (GFP-green); 10 μM, 4 hrs; n=3. On the procedure: To validate the selective nature of 3D towards cancer cells, normal human mammary cells were co-cultured (MCF-10A) with human TNBC cells (MDA-MB-231) in the same culture dish (FIG. 4B) and incubated with 3D to assess the compound's selectivity. This experiment was done by plating a 1:1 ratio of MCF-10A cells (mcherry red) and MDA-MB-231 cells (GFP-green) and challenging them with DMSO or 3D (10 μM) for 4 hrs as described in Example 2. Following the treatments, pictures were acquired at 20× using the EVOS-Fl microscope. […] This co-culture was repeated 3 separate times on different passages (n=3).

Series [7] has as its system MDA-MB-231 cells. Nature of the series: Colony formation of MDA-MB-231 cells with and without radiation. In kind it is cell-based, human. The conditions noted are these: 2 Gray radiation dose. On the procedure:
FIG. 1A is a set of images illustrating colonies of MDA-MB-231 cells exposed to DMSO (control) and compound 3D (10 μM, 4 hrs).
FIG. 1B reports the results depicted in FIG. 1A as a bar graph.
Compound 3D was previously shown to radiosensitize ER-positive breast cancer and prostate cancer cells (U.S. Pat. No. 8,541,476). This compound was then tested to see if it would radiosensitize aggressive TNBC cells such as MDA-MB-231.

In series [8] the test system is MDA-MB-231 cells. As to the kind of experiment: Cell morphology under phase contrast microscope, MDA-MB-231 cells. In kind it is cell-based, human. The text has this: FIGS. 2B-2G are images of MDA-MB-231 cells treated with DMSO (control), NS-123 and 3D (FIGS. 2B, 2D and 2F) under a phase contrast microscope (10×) and apoptosis profiles for the respective images (FIGS. 2C, 2E and 2G) determined using flow cytometry.
To further investigate the type of cell death induced by treatment of TNBC cells with 3D, its activity was compared to the original parent radiosensitizing compound NS-123 (4-bromo-3-nitrophenyl propan-1-one). FIG. 2A depicts the chemical structures of both the parent NS-123 (left) and compound 3D (right) highlighting the substitution with iodide and sulfonyl moieties in 3D structure compared to a bromide and carbonyl in the original radiosensitizing NS-123.

The test system of series [9] is H2AX (P-H2AX ser139). Nature of the series: Western blot of H2AX phosphorylation in MDA-MB-231 cells. The conditions noted are these: 4 hr treatment. It is filed as cell-based, human. The text has this: (§5) Effects of 3D on DNA damage in MDA-MB-231 cells was compared to a matching dose of DMSO vehicle.
A general note: In western blotting, separated proteins are transferred to a membrane and probed.

Series [10] deals with ATM (P-ATM ser1981). Nature of the series: Western blot of ATM phosphorylation in MDA-MB-231 cells. It is filed as cell-based, human. The conditions noted are these: 4 hr treatment.
Excerpt: as §5

For series [11], the system named is MCF-10A (normal mammary cells). As to the kind of experiment: Annexin V assay in normal MCF-10A mammary cells. In kind it is cell-based. As to conditions: normal MCF-10A cells, 10 μM, n=5. The text has this: (§6) The effects of compound 3D on survival of MCF-10A (normal mammary cells) were thus examined.
Series [12] has as its system MCF-10A cells. Nature of the series: ROS detection (Muse oxidative stress kit) in normal MCF-10A cells. In kind it is cell-based, human. As to conditions: 10 μM, 4 hrs, p=0.9.
Excerpt: as §1, §2

In series [13] the test system is MCF-10A (normal mammary cells). Nature of the series: Cell morphology of normal MCF-10A cells after treatment. In kind it is cell-based. The conditions noted are these: 10 μM, 4 hrs.
Excerpt: as §6

Series [14] relates to prostate cancer cells. As to conditions: U.S. Pat. No. 8,541,476; cited from earlier work.
The subject of series [15] is ER-positive breast cancer cells. The conditions noted are these: U.S. Pat. No. 8,541,476; cited from earlier work.

Entries after “also recorded” stand apart in the source; their conditions may differ.

Turning to `O=[N+]([O-])c1ccccc1I` [1-iodo-2-nitrobenzene, reference compound], the “ROS accumulation in TNBC cells” value in series [1] is “inactive”. The “caspase 3/7 activation” value in series [2] and in [3] was “inactive” each time.
Take `CCS(=O)(=O)c1ccc(F)c([N+](=O)[O-])c1` [Compound 3C, 4-(Ethylsulfonyl)-1-fluoro-2-nitrobenzene]: in [4], the “apoptosis / killing of TNBC cells by caspase 3/7 activation” value is recorded as “very low rates of apoptosis” and the “caspase 3/7 positive cells” value is listed as 7.9±3.0%.
As usually defined, the cell viability is a per cent measure of how many cells are alive, often set against a control. High values mean better survival, low ones a greater loss of cells. Consider `CCS(=O)(=O)c1ccc(I)c([N+](=O)[O-])c1` [Compound 3D, 4-(Ethylsulfonyl)-1-iodo-2-nitrobenzene], for which, in [5], the “total annexin V-positive cells” value is recorded as 51.4±3.1% and the live cell population turned out to be 48.1±3.0%. The “selectivity of apoptotic death in co-culture” value in [6] is reported as “apoptotic death selectively occurred in the green cells (TNBC) while the red cells (normal) remained healthy”. In addition, the “radiosensitizing effect on colony formation” value in series [7] is listed as “failed to enhance this action further; also recorded: no radiosensitizing effects”. Also, the “cell appearance under phase contrast microscope (10×)” value in [8] is “rounded and unhealthy; also recorded: noticeably misshapen”. Moreover, in [9], the “total H2AX” value is “increased slightly”. In addition, the “phosphorylated levels of H2AX (P-H2AX ser139)” value in series [9] (vs DMSO) is “significant increase; also recorded: induction”. Also, the “total ATM” value in [10] is given as “remains unchanged”. The “phosphorylated levels of ATM (P-ATM ser1981)” value in series [10] (vs DMSO) is reported as “significant increase; also recorded: induction”. This compound came in with a total apoptosis in series [11] (DMSO 12.7±5.3%) of 12.2±3.2%. This compound gave a cell viability in series [11] (DMSO 85.6±5.9%) of 86.9±3.3%. For the same compound, the “ROS accumulation in normal cells” value in series [12] is “lacking any significant effects; also recorded: no significant increase”. The “effect on morphology / health of normal cells” value in series [13] is recorded as “morphology remains intact; also recorded: no observable effect on the health of non-TNBC cells”. Moreover, in [1], the “ROS accumulation in TNBC cells” value is “significantly raised the levels of ROS”. Further, the “increase in ROS accumulation compared to DMSO” value in [1] (p=0.00005) is recorded as around 3 fold. Besides, in [4], the “apoptosis / killing of TNBC cells by caspase 3/7 activation” value is reported as “induced specific caspase 3/7 activation; also recorded: high rates of apoptosis” and the “caspase 3/7 positive cells” value was determined as 49.5±8.3%. Besides, the early apoptosis population in [4] (DMSO 0.7±0.1%) turned out to be 0.9±0.2%. The “caspase 3/7-positive cells in late apoptosis phase” value in series [4] (DMSO 5.8±1.0%) is listed as 47.4±8.5%. Moreover, in [2], the “caspase 3/7 activation” value is “increased caspase 3/7 activation”. In addition, the “caspase 3/7 activation” value in series [3] is given as “increased caspase 3/7 activation; also recorded: induced an activated caspase-3/7 population”. Also, in series [14], the radiosensitization entry was “radiosensitize”. The radiosensitization entry in series [15] was “radiosensitize”.
Regarding `CCC(=O)c1ccc(Br)c([N+](=O)[O-])c1` [NS-123, 4-bromo-3-nitrophenyl propan-1-one, reference compound], in series [5], the “total annexin V-positive cells” value is reported as 11.6±2.4% and the live cell population is listed as 88.3±2.4%. For the same compound, the “cell appearance under phase contrast microscope (10×)” value in series [8] is “normal healthy features”.

The record behind these values is patent US20180280319A1, “COMPOUNDS AND COMPOSITIONS FOR TREATMENT OF BREAST CANCER” (UNIVERSITY OF THE SCIENCES, priority 2017, published 2018).
